Experimental data taken from patent US7432089B2, “DNA encoding favin-adenine-dinucleotide-dependent-D-erythronate-4-phosphate-de-hydrogenase, pdxR, and microbial production of vitamin B6” (DSM IP Assets B.V., priority 2002, dated 2008).

Legend:
[1] = test system: PdxR; experiment: Substrate specificity of PdxR (DCIP reduction, A600); assay type: biochemical, S. meliloti
Procedure: Substrate specificity of PdxR was examined using the finally purified enzyme solution prepared in Example 2[C] (1). The standard enzyme assay was performed as follows: the basal reaction mixture (total volume 150 μl) consisting of 33 mM potassium phosphate buffer (pH 7.0), 2.4 μg proteins, 0.091 mM DCIP, and water up to a total volume of 144 μl, and was incubated for 1 minute at room temperature (21° C.). […]. The decrease in A600 was monitored at 21° C. for 1 minute for EN4P dehydrogenase read with a UV-VIS recording spectrophotometer UV 2200. One unit of the enzyme activity was defined as the amount of enzyme reduced 1 nmol of DCIP for 1 minute under the action of EN4P dehydrogenase in the assay system described above.

[2] = test system: S. meliloti 16C18; experiment: Growth of vitamin B6-deficient mutant on supplemented EMM plate; assay type: cell-based, Sinorhizobium meliloti
Procedure: These colonies were streaked on LBMC plates containing same antibiotics and incubated for 2 days at 30° C. The cells grown on the plates were inoculated on vitamin B6 assay plates (Table 1) containing Saccharomyces carlsbergensis ATCC 9080 as a vitamin B6 indicator strain. After incubation for 2 days at 30° C., one colony that had no halo of Saccharomyces carlsbergensis ATCC 9080 was obtained. The strain was named as S. meliloti 16C18. […] Further, S. meliloti 16C18 grew on EMM plate which was supplemented with 4 mg/L of 4-HT or 400 μg/L of PN.

[3] = test system: CFE of S. meliloti 16C18; experiment: EN4P dehydrogenase activity with an electron acceptor in cell-free extract (color change); assay type: biochemical; conditions: 21° C.
Procedure: (§1) The frozen cells were thawed slowly, suspended with 200 ml of 10 mM Tris-HCl buffer, pH 7.5. The suspension was passed through a French pressure cell at 800 kg/cm^2. The homogenate was centrifuged to remove the cell debris at 37,000×g for 90 minutes and then each 165 ml of supernatants was used as cell-free extract (CFE) and the protein contents in S. meliloti 16C18 and S. meliloti 16C18/pVK-pdxR were 5,030 and 5,042 mg, respectively.
(§2) EN4P dehydrogenase activity with NAD^+ or NADP^+ in CFE was determined by the formation of NADH or NADPH, which absorbs at 340 nm. Reaction mixture (150 μl) for assaying EN4P dehydrogenase activity contained 33 mM potassium phosphate buffer, pH 7.0, 2.3 mM EN4P, 1 mM NAD^+ or NADP^+, and CFE prepared from cells of S. meliloti 16C18 or S. meliloti 16C18/pVK-pdxR (each 0.16 mg protein). The increase of A340 was monitored at room temperature (21° C.) for 1 min in a UV-VIS recording spectrophotometer UV 2200 (Shimadzu Instruments, Inc., Kyoto, Japan), but the increase of A340 was not observed in enzyme reaction mixtures with any CFEs. Therefore, the both CFEs were determined to have no NAD^+ or NADP^+ dependent EN4P dehydrogenase activity. EN4P dehydrogenase activity with an electron acceptor in CFE was examined at room temperature (21° C.) by color change due to formation of reduced form from oxidized form of an electron acceptor. Reaction mixture (150 μl) contained 33 mM potassium phosphate buffer, pH 7.0, 2.3 mM EN4P, CFE (0.16 mg protein), and an electron acceptor such as 2,6-dichlorophenolindophenol (0.091 mM) (Wako Pure chemical Industries, Ltd., Osaka, Japan) (referred to as DCIP hereinafter) or ferricyanide (1.3 mM) (Wako Pure chemical Industries, Ltd., Osaka, Japan). […]

[4] = test system: pdxR gene product in CFE of S. meliloti 16C18/pVK-pdxR; experiment: as above; assay type: biochemical; conditions: 21° C.
Procedure: as §1, §2

[5] = test system: purified PdxR treated with ammonium sulfate; experiment: Effect of flavin on discoloration of DCIP in reaction mixture; assay type: biochemical, S. meliloti
Procedure: To characterize a flavin binding to PdxR protein, ammonium sulfate fractionation was applied in the finally purified enzyme solution prepared in Example 2[C] (1) according to a method of Cammack [Biochem. J. 109:45-46 (1968)]. The enzyme solution (1 ml, containing 4.74 mg proteins) was dialyzed overnight against 1 liter of 80% (w/v) ammonium sulfate solution and its resultant precipitate in a dialysis membrane was collected by centrifugation at 34,800×g for 30 min, dissolved in 0.5 ml of 10 mM Tris-HCl, pH 7.5, and dialyzed overnight against 4 liters of the same buffer. The volume of dialyzed enzyme solution was brought to 1 ml with 10 mM Tris-HCl, pH 7.5.
The degree of discoloration was judged at 3 minutes.

[6] = test system: EN4P dehydrogenase in CFE of S. meliloti 16C18 or S. meliloti 16C18/pVK-pdxR; experiment: EN4P dehydrogenase activity with NAD+ or NADP+ in CFE (increase of A340); assay type: biochemical; conditions: 1 mM coenzyme, 2.3 mM EN4P, any CFE, 21° C., 1 min
Procedure: as §2

[7] = test system: EN4P dehydrogenase; experiment: Cytochrome c as electron acceptor of EN4P dehydrogenase (absorption spectra 400-600 nm); assay type: biochemical, S. meliloti; conditions: 80 μM oxidized cytochrome c, 2.3 mM EN4P, CFE, 21° C., 2-20 min
Sequence of EN4P dehydrogenase (as listed by the source): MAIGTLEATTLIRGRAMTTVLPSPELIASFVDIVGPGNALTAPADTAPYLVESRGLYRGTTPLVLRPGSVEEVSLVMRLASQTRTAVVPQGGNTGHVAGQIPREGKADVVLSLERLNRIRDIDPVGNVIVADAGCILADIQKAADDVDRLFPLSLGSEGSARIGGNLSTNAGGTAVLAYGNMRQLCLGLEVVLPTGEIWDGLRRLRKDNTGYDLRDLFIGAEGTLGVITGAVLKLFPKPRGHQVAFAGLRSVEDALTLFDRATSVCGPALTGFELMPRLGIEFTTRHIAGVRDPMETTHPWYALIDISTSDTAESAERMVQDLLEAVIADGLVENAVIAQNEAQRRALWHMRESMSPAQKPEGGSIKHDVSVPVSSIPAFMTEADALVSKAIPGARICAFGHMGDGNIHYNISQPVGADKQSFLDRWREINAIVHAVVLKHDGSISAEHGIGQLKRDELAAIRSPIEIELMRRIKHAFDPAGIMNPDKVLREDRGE
Procedure: Furthermore, possibility of cytochrome c instead of DCIP or ferricyanide in above-mentioned enzyme reaction system of EN4P dehydrogenase with an electron acceptor was examined by measuring change of absorption spectra in 400-600 nm spectral regions due to formation of reduced form from oxidized form of cytochrome c at room temperature (21° C.). Reaction mixture (150 μl) contained 33 mM potassium phosphate buffer, pH 7.0, 2.3 mM EN4P, 80 μM oxidized form of cytochrome c (from equine heart, Sigma Chemical Co.) as an electron acceptor, and CPE (0.16 mg protein). Absorption spectra of the reaction mixture of zero time and after 2, 5, 10, 15 and 20 min at room temperature (21° C.) were monitored with a UV-VIS recording spectrophotometer UV 2200. The absorption spectrum of zero time had only a broad peak at 525 nm, but spectra after 2 min appeared a new peak at 550 nm corresponding to reduced form of cytochrome c, and the absorption in the 550 nm region after 5, 10, 15 and 20 min was increased with time course.

[8] = substrate 2.28 mM, 0.091 mM DCIP, pH 7.0, 21° C.

Compound: CC(O)C(=O)O (racemic) [D,L-lactate]
- Activity (nmol/min/mg protein) ([1]; pH 7): 0 nmol/min/mg protein

Compound: N[C@H](C(=O)O)[C@H](O)CO [4-HT, 4-hydroxy-L-threonine]
- Growth of S. meliloti 16C18 on supplemented EMM plate ([2]; EMM plate supplemented with 4 mg/L of 4-HT): grew

Compound: O=C(O)[C@H](O)CO [D(+) glyceric acid]
- Activity (nmol/min/mg protein) [1, 8]: 0 nmol/min/mg protein

Compound: O=C(O)CC(C(=O)O)C(O)C(=O)O [D,L-isocitrate]
- Activity (nmol/min/mg protein) [1, 8]: 0 nmol/min/mg protein

Compound: O=C(O)[C@H](O)COP(=O)(O)O [D-(−)-glyceric acid 3-phosphate]
- Activity (nmol/min/mg protein) [1, 8]: 0 nmol/min/mg protein

Compound: O=C(O)[C@H](O)[C@H](O)CO [D-erythronate]
- Activity (nmol/min/mg protein) ([1]; pH 7): 0 nmol/min/mg protein

Compound: O=C1C=CC(=Nc2cc(Cl)c(O)c(Cl)c2)C=C1 [DCIP, 2,6-dichlorophenolindophenol]
- Color change of electron acceptor in reaction mixture ([3]; CFE of S. meliloti 16C18, + EN4P (2.3 mM)): No change
- Color change of electron acceptor in reaction mixture ([3]; CFE of S. meliloti 16C18, − EN4P): No change
- Color change of electron acceptor in reaction mixture [4]: No change

Compound: O=C(O)[C@H](O)[C@H](O)COP(=O)(O)O [EN4P, D-erythronate 4-phosphate]
- Oxidation by PdxR ([1]; substrate 2.28 mM, 0.091 mM DCIP): oxidized
- Activity (nmol/min/mg protein) [1, 8]: 946 nmol/min/mg protein

Compound: Cc1cc2nc3c(=O)[nH]c(=O)nc-3n(C[C@H](O)[C@H](O)[C@H](O)COP(=O)(O)OP(=O)(O)OC[C@H]3O[C@@H](n4cnc5c(N)ncnc54)[C@H](O)[C@@H]3O)c2cc1C [FAD, flavin adenine dinucleotide]
- Flavin concentration at which discoloration of DCIP occurred ([5]; judged at 3 minutes, 21° C.): greater than 0.014 μM

Compound: Cc1cc2nc3c(=O)[nH]c(=O)nc-3n(C[C@H](O)[C@H](O)[C@H](O)COP(=O)(O)O)c2cc1C [FMN, flavin mononucleotide]
- Discoloration of DCIP ([5]; any FMN concentrations): did not occur

Compound: C[C@H](O)C(=O)O [L-(+)-lactic acid]
- Activity (nmol/min/mg protein) [1, 8]: 0 nmol/min/mg protein

Compound: O=C(O)C[C@H](O)C(=O)O [L-malic acid]
- Activity (nmol/min/mg protein) [1, 8]: 0 nmol/min/mg protein

Compound: NC(=O)c1ccc[n+]([C@@H]2O[C@H](COP(=O)([O-])OP(=O)(O)OC[C@H]3O[C@@H](n4cnc5c(N)ncnc54)[C@H](OP(=O)(O)O)[C@@H]3O)[C@@H](O)[C@H]2O)c1 [NADP^+]
- Increase of A340 (formation of NADH or NADPH) [6]: not observed

Compound: NC(=O)c1ccc[n+]([C@@H]2O[C@H](COP(=O)([O-])OP(=O)(O)OC[C@H]3O[C@@H](n4cnc5c(N)ncnc54)[C@H](O)[C@@H]3O)[C@@H](O)[C@H]2O)c1 [NAD^+]
- Increase of A340 (formation of NADH or NADPH) [6]: not observed

Compound: Cc1ncc(CO)c(CO)c1O [PN, pyridoxol]
- Growth of S. meliloti 16C18 on supplemented EMM plate ([2]; EMM plate supplemented with 400 μg/L of PN): grew

Compound: O=C(O)CO [glycolate]
- Activity (nmol/min/mg protein) [1, 8]: 0 nmol/min/mg protein

Compound: O=C(O)COP(=O)(O)O [glycolic acid 2-phosphate]
- Activity (nmol/min/mg protein) [1, 8]: 0 nmol/min/mg protein

Compound: O=CC(=O)O [glyoxylate]
- Activity (nmol/min/mg protein) [1, 8]: 0 nmol/min/mg protein

Compound: cytochrome c
- Function as electron acceptor (reduced form peak at 550 nm) [7]: works as electron acceptor
